Data: patent publication US10231954B2, “Neurodegenerative therapies” (LYTIX BIOPHARMA AS, priority 2014, dated 2019)
Read-outs that look alike come from different tables or passages of the source.

Columns and labels:
Assay type in all cases: biochemical
[1] = target: PKBa (Homo sapiens, UniProt P31749); test: Kinase profiling PKBa; settings: for remaining activity at 100 µM: read-out: residual kinase activity, PKBa
Source text: (§1) Any value less that 25 is considered to be highly significant inhibition.

[2] = target: ROCK 2 (Homo sapiens, UniProt O75116); test: Kinase profiling ROCK 2; settings: for remaining activity at 100 µM: read-out: residual kinase activity, ROCK 2
Source text: as §1

[3] = target: T1, IRAK4 (Homo sapiens, UniProt Q9NWZ3); test: Kinase profiling IRAK4; settings: for remaining activity at 100 µM: read-out: residual kinase activity, IRAK4
T1 sequence (Q9NWZ3 1-460): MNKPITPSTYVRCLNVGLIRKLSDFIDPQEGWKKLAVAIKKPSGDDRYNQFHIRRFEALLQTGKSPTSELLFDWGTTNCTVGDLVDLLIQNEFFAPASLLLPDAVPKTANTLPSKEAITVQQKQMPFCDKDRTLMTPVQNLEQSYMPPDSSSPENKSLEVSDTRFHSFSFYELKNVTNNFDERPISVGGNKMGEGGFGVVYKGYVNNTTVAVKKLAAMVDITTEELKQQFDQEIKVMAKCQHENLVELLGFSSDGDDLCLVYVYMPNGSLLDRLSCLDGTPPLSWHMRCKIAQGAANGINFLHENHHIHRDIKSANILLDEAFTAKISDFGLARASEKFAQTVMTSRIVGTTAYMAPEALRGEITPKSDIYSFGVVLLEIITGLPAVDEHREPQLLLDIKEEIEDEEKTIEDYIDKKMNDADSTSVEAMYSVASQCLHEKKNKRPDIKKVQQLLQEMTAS
Source text: as §1

[4] = target: PKA (Homo sapiens, UniProt P17612); test: Kinase profiling PKA; settings: for remaining activity at 100 µM: read-out: residual kinase activity, PKA
Source text: as §1

[5] = target: MSK1 (Homo sapiens, UniProt O75582); test: Kinase profiling MSK1; settings: for remaining activity at 100 µM: read-out: residual kinase activity, MSK1
Source text: as §1

[6] = system: VEG-FR; test: Kinase profiling VEG-FR
Source text: as §1

[7] = target: T2, SGK1 (Homo sapiens, UniProt O00141); test: Kinase profiling SGK1; settings: for remaining activity at 100 µM: read-out: residual kinase activity, SGK1
T2 sequence (O00141 1-431): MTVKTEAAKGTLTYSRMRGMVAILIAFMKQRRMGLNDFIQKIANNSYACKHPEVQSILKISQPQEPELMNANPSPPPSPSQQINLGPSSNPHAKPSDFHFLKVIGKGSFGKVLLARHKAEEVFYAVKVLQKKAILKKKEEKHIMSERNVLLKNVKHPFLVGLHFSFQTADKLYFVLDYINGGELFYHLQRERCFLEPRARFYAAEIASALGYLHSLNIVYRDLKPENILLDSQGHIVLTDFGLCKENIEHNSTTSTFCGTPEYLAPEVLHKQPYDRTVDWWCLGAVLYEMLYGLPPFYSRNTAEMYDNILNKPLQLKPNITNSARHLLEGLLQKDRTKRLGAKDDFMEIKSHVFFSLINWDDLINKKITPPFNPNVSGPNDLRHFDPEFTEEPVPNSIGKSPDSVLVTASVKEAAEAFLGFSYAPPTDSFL
Source text: as §1

[8] = target: IGF-1R (Homo sapiens, UniProt P08069); test: Kinase profiling IGF-1R; settings: for remaining activity at 100 µM: read-out: residual kinase activity, IGF-1R
Source text: as §1

[9] = target: T3, TTK (Homo sapiens, UniProt P33981); test: Kinase profiling TTK; settings: for remaining activity at 100 µM: read-out: residual kinase activity, TTK
T3 sequence (P33981 1-857): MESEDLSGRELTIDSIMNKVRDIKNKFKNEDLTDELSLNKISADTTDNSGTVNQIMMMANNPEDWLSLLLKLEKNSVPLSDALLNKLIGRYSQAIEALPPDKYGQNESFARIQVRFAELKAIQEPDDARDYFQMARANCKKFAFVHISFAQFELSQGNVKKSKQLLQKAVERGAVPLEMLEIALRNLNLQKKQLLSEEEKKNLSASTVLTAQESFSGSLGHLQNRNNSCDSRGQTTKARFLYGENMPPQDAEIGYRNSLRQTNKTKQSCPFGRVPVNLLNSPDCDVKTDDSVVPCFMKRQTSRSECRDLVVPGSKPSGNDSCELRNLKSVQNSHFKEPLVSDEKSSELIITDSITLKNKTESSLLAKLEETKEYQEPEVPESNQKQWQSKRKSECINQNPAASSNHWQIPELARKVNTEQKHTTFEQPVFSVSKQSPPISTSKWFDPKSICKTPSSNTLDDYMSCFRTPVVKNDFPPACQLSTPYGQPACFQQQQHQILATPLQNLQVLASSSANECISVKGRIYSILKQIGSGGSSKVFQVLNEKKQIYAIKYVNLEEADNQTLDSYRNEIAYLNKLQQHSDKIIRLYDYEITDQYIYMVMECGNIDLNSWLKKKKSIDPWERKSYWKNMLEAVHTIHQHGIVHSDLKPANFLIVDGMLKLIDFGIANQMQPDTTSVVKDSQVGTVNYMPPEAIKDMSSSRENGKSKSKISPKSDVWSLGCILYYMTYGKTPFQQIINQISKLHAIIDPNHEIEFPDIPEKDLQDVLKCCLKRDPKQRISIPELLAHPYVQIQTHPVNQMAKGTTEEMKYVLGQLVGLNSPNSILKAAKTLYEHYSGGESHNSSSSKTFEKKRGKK
Source text: as §1

[10] = 100 micromolar inhibitor concentration, 100 is no change
[11] = 100 micromolar inhibitor, 100 = no change

PKBa, sequence (P31749 whole entry): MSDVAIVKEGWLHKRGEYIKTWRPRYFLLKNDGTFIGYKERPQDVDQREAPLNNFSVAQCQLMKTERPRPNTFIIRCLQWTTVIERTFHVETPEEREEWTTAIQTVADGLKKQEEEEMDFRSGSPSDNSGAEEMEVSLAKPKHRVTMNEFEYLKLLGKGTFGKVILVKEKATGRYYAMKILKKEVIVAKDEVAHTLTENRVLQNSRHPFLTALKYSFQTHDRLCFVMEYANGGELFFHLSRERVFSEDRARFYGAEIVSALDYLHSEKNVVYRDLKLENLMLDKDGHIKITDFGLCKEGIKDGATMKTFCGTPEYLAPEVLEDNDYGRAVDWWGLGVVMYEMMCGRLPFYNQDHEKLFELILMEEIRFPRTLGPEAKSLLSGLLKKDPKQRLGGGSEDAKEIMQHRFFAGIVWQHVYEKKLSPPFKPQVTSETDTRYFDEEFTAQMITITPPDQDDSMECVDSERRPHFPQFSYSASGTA
IGF-1R, sequence (P08069 31-1367, species assumed): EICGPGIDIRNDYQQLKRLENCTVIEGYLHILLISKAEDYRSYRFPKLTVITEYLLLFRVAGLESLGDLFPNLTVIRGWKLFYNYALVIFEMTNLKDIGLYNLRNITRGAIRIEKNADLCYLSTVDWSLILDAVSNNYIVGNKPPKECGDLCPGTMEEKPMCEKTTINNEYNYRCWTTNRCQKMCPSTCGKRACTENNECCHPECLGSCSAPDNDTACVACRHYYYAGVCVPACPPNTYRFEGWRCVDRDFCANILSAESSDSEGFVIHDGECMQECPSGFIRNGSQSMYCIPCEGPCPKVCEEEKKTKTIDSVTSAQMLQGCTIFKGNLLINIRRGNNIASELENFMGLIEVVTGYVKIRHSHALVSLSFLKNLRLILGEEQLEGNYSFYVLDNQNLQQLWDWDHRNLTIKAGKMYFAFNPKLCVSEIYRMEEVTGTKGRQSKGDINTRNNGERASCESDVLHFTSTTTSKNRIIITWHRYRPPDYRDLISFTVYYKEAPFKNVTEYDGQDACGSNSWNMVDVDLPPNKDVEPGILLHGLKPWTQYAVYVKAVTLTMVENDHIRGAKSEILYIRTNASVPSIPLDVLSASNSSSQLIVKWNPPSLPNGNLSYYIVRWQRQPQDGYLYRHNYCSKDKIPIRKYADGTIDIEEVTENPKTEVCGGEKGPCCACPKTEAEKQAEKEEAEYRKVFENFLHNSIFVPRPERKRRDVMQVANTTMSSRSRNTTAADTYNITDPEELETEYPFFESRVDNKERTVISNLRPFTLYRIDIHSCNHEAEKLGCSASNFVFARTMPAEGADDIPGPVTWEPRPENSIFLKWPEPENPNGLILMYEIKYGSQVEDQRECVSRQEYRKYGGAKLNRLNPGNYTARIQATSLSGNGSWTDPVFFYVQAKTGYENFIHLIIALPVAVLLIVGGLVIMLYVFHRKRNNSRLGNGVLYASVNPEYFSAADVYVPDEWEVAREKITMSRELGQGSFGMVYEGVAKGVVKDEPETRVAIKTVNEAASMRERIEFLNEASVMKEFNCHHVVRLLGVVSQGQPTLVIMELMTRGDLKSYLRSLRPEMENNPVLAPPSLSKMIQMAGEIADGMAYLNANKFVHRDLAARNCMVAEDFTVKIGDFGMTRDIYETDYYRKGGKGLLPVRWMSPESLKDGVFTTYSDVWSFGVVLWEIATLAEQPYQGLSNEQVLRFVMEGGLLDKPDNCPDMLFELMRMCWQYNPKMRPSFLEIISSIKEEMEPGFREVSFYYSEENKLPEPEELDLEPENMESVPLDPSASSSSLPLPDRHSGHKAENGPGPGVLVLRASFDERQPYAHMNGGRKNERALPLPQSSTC
ROCK 2, sequence (O75116 whole entry, species assumed): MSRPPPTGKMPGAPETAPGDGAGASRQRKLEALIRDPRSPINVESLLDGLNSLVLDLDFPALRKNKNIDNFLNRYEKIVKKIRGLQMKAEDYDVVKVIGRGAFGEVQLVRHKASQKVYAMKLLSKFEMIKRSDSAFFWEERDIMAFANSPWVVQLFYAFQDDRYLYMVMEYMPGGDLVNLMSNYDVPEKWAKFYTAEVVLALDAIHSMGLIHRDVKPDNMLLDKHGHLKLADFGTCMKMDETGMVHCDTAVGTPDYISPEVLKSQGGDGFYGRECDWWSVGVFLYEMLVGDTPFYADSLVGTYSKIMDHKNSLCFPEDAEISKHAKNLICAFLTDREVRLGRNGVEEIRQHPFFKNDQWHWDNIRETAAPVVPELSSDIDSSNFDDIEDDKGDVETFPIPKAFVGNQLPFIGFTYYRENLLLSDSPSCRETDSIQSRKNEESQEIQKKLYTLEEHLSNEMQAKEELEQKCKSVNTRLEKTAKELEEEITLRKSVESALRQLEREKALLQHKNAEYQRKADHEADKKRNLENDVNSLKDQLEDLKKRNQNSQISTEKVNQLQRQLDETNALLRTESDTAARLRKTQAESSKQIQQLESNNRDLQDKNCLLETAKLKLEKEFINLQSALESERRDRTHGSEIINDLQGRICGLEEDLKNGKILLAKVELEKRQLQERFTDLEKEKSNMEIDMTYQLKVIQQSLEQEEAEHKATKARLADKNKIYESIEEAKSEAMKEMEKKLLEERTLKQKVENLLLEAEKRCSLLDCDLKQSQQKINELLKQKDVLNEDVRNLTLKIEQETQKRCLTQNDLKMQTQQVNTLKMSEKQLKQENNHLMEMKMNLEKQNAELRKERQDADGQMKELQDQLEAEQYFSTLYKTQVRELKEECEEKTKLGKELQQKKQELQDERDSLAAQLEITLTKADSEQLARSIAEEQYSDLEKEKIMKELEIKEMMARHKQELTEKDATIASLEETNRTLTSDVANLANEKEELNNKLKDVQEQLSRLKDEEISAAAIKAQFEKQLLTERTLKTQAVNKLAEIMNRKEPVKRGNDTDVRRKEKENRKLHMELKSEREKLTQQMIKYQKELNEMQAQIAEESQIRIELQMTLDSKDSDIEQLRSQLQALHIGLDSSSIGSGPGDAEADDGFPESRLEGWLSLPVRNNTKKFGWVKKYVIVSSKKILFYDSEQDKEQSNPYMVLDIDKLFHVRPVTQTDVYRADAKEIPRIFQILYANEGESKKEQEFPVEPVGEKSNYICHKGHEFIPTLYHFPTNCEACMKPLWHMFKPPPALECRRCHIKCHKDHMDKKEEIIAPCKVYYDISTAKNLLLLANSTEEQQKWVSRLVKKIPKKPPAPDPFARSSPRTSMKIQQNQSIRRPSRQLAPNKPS
MSK1, sequence (O75582 whole entry, species assumed): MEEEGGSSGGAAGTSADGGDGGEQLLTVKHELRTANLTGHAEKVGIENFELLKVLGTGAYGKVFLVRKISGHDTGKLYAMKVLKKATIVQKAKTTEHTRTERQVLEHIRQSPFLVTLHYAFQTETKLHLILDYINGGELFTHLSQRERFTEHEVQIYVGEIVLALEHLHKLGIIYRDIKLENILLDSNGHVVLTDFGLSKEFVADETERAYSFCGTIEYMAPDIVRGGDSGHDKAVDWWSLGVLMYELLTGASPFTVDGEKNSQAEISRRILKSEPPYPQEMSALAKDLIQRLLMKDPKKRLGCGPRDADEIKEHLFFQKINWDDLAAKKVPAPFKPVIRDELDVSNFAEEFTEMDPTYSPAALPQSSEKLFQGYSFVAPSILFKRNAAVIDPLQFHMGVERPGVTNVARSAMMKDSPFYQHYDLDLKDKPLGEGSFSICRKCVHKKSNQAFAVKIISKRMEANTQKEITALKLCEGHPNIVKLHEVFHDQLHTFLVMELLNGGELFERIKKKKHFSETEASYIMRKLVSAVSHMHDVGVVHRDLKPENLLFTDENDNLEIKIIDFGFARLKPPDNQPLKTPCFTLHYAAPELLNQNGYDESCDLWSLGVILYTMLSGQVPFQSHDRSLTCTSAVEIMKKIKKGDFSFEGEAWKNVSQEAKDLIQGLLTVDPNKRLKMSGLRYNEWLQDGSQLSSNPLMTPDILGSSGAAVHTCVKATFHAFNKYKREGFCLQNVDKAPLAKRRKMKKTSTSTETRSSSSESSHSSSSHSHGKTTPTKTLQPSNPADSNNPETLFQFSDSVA

SMILES | residual kinase activity, PKBa [1, 10] | residual kinase activity, ROCK 2 [2, 10] | residual kinase activity, IRAK4 [3, 10] | residual kinase activity, PKA [4, 10] | residual kinase activity, MSK1 [5, 10] | residual kinase activity, VEG-FR [6, 10] | residual kinase activity, SGK1 [7, 10] | residual kinase activity, IGF-1R [8, 10] | residual kinase activity, TTK [9, 10] | also measured
O=C(Nc1nc2ccc(F)cc2s1)c1ccccc1 [Compound 03-92] | 99 | 95 | 72 | 96 | 81 | 53 | 93 | 88 | 47 | –
CC(=O)Nc1nc2ccc(F)cc2s1 [Compound 03-94] | 94 | 70 | 44 | 93 | 88 | 18 | 67 | 92 | 37 | –
O=C(Nc1nc2cc(O)ccc2s1)c1ccccc1 [Compound 03-102] | 88 | 47 | 34 | 93 | 72 | 11 | 86 | 52 | 30 | –
COc1ccc2nc(C(=O)Nc3ccccc3)sc2c1 [Compound 13-03] | – | – | – | – | – | – | – | – | – | residual kinase activity, PKBa [1, 11]: 106; residual kinase activity, ROCK 2 [2, 11]: 70; residual kinase activity, IRAK4 [3, 11]: 93; residual kinase activity, PKA [4, 11]: 97; residual kinase activity, MSK1 [5, 11]: 97; residual kinase activity, VEG-FR [6, 11]: 87; residual kinase activity, SGK1 [7, 11]: 91; residual kinase activity, IGF-1R [8, 11]: 104; residual kinase activity, TTK [9, 11]: 108
N#Cc1ccc2nc(NC(=O)c3ccccc3)sc2c1 [Compound 03-106] | 67 | 125 | 70 | 91 | 64 | 36 | 77 | 131 | 42 | –
COc1cccc(NC(=O)Nc2nc3cc(O)ccc3s2)c1 [Compound 13-62] | – | – | – | – | – | – | – | – | – | residual kinase activity, PKBa [1, 11]: 66; residual kinase activity, ROCK 2 [2, 11]: 11; residual kinase activity, IRAK4 [3, 11]: 17; residual kinase activity, PKA [4, 11]: 104; residual kinase activity, MSK1 [5, 11]: 41; residual kinase activity, VEG-FR [6, 11]: 7; residual kinase activity, SGK1 [7, 11]: 21; residual kinase activity, IGF-1R [8, 11]: 62; residual kinase activity, TTK [9, 11]: 25
COC(=O)c1cccc(C(=O)Nc2nc3ccc(F)cc3s2)c1 [Compound 03-110] | 109 | 86 | 96 | 93 | 77 | 66 | 87 | 96 | 35 | –
COc1ccc2sc(NC(=O)c3cccc(C(N)=O)c3)nc2c1 [Compound 03-113] | 89 | 68 | 58 | 101 | 65 | 86 | 88 | 104 | 95 | –
O=C(Nc1nc2ccc(C(F)(F)F)cc2s1)c1ccccc1 [Compound 03-99] | 91 | 97 | 70 | 96 | 70 | 28 | 69 | 85 | 32 | –
COc1ccc2nc(NC(=O)c3ccccc3)sc2c1 [Compound 03-98] | 103 | 66 | 46 | 90 | 90 | 37 | 78 | 104 | 18 | –
CC(=O)Nc1nc2ccc([N+](=O)[O-])cc2s1 [Compound 13-10] | – | – | – | – | – | 5 | – | – | – | remaining activity at 100 µM [1]: 101%; remaining activity at 100 µM [2, 10]: 96%; remaining activity at 100 µM [3, 10]: 8%; remaining activity at 100 µM [4, 10]: 99%; remaining activity at 100 µM [5, 10]: 92%; remaining activity at 100 µM [7, 10]: 58%; remaining activity at 100 µM [8, 10]: 91%; remaining activity at 100 µM [9, 10]: 55%
COC(=O)c1cccc(C(=O)Nc2nc3cc(OC)ccc3s2)c1 [Compound 03-108] | 106 | 52 | 63 | 92 | 88 | 77 | 83 | 123 | 94 | –
COc1ccc2sc(NC(=O)c3ccccc3)nc2c1 [Compound 03-95] | 80 | 54 | 57 | 83 | 67 | 65 | 60 | 100 | 71 | –
COC(=O)c1cccc(C(=O)Nc2nc3ccc(C(F)(F)F)cc3s2)c1 [Compound 03-105, Methyl 3-((6-(trifluoromethyl)benzo[d]thiazol-2-yl)carbamoyl)benzoate] | – | – | – | – | – | 29 | – | – | – | remaining activity at 100 µM [1]: 92%; remaining activity at 100 µM [2]: 103%; remaining activity at 100 µM [3]: 78%; remaining activity at 100 µM [4]: 96%; remaining activity at 100 µM [5]: 84%; remaining activity at 100 µM [7]: 86%; remaining activity at 100 µM [8]: 101%; remaining activity at 100 µM [9]: 9%
